# Reference: PMC9603901, “Therapeutic Potential of Antimicrobial Peptide PN5 against Multidrug-Resistant E. coli and Anti-Inflammatory Activity in a Septic Mouse Model” (Microbiology Spectrum, 2022)
# Read-outs that look alike come from different tables or passages of the source. Where no end group is shown, it is not given here.
# Experiments:
# [1] = system: MDR E. coli ASEC 10; design: method as in Asan hospital; key to susceptibility category: S: susceptible; R: resistant; I: intermediate; details: ref Asan hospital, cited from earlier work
# [2] = system: MDR E. coli ASEC 17; design: method as in Asan hospital; key to susceptibility category: S: susceptible; R: resistant; I: intermediate; details: ref Asan hospital, cited from earlier work
# [3] = system: MDR E. coli ASEC 2; design: method as in Asan hospital; key to susceptibility category: S: susceptible; R: resistant; I: intermediate; details: ref Asan hospital, cited from earlier work
# [4] = system: MDR E. coli ASEC 7; design: method as in Asan hospital; key to susceptibility category: S: susceptible; R: resistant; I: intermediate; details: ref Asan hospital, cited from earlier work
# [5] = system: MDR E. coli ASEC 13; design: method as in Asan hospital; key to susceptibility category: S: susceptible; R: resistant; I: intermediate; details: ref Asan hospital, cited from earlier work
# [6] = system: MDR E. coli ASEC 12; design: method as in Asan hospital; key to susceptibility category: S: susceptible; R: resistant; I: intermediate; details: ref Asan hospital, cited from earlier work
# [7] = system: MDR E. coli ASEC 5; design: method as in Asan hospital; key to susceptibility category: S: susceptible; R: resistant; I: intermediate; details: ref Asan hospital, cited from earlier work
# [8] = system: MDR E. coli ASEC 8; assay: microbe, parasite or virus in culture; assay type: cell-based, Escherichia coli; details: microdilution, LB, 18 to 24 h, 37°C, three independent experiments
# Protocol: (§1) Bacterial cells were cultured at 37°C in the appropriate culture media with shaking (180 rpm). Luria-Bertani broth (LB) (244620; BD Difco) was used for E. coli ATCC 25922, ASEC strains, and B. subtilis KCTC 2217. Nutrient broth (NB) (234000; BD Difco) was used for P. aeruginosa ATCC 27853, S. Typhimurium KCTC 1926, and A. baumannii KCTC 2508. Tryptic soy broth (TSB) (211825; BD Difco) was used for S. aureus ATCC 25923. Finally, brain heart infusion (BHI) (237500; BD Difco) was used for L. monocytogenes KCTC 3710. The antimicrobial activity of each peptide was determined using microdilution assays. To this end, 2-fold serial dilution series of each peptide (from 1 to 64 μM) were added to duplicate media with 10 mM sodium phosphate buffer (pH 7.4). Fifty microliters of the peptide and antibiotic solution was added to each well of a 96-well plate (32096, surface nontreatment; SPL Life Sciences). Then, 50 μL of 2 × 10^5 CFU mL^−1 of bacteria was added to each well, and the samples were incubated for 18 to 24 h without shaking at 37°C.
# [9] = system: MDR E. coli ASEC 12; assay: microbe, parasite or virus in culture; assay type: cell-based, Escherichia coli; details: microdilution, LB, 18 to 24 h, 37°C, three independent experiments
# Protocol: as §1
# [10] = system: MDR E. coli ASEC 9; assay: microbe, parasite or virus in culture; assay type: cell-based, Escherichia coli; details: microdilution, LB, 18 to 24 h, 37°C, three independent experiments
# Protocol: as §1
# [11] = system: MDR E. coli ASEC 14; assay: microbe, parasite or virus in culture; assay type: cell-based, Escherichia coli; details: microdilution, LB, 18 to 24 h, 37°C, three independent experiments
# Protocol: as §1
# [12] = system: MDR E. coli ASEC 19; assay: microbe, parasite or virus in culture; assay type: cell-based, Escherichia coli; details: microdilution, LB, 18 to 24 h, 37°C, three independent experiments
# Protocol: as §1
# [13] = system: MDR E. coli ASEC 4; assay: microbe, parasite or virus in culture; assay type: cell-based, Escherichia coli; details: microdilution, LB, 18 to 24 h, 37°C, three independent experiments
# Protocol: as §1
# [14] = system: MDR E. coli ASEC 18; assay: microbe, parasite or virus in culture; assay type: cell-based, Escherichia coli; details: microdilution, LB, 18 to 24 h, 37°C, three independent experiments
# Protocol: as §1
# [15] = system: E. coli ATCC 25922; assay: microbe, parasite or virus in culture; assay type: cell-based, Escherichia coli; details: LB, 2 × 10^5 CFU mL^−1, 18 to 24 h, 37°C, three independent experiments
# Protocol: as §1
# [16] = system: MDR E. coli ASEC 13; assay: microbe, parasite or virus in culture; assay type: cell-based, Escherichia coli; details: microdilution, LB, 18 to 24 h, 37°C, three independent experiments
# Protocol: as §1
# [17] = system: MDR E. coli ASEC 7; assay: microbe, parasite or virus in culture; assay type: cell-based, Escherichia coli; details: microdilution, LB, 18 to 24 h, 37°C, three independent experiments
# Protocol: as §1
# [18] = system: MDR E. coli ASEC 15; assay: microbe, parasite or virus in culture; assay type: cell-based, Escherichia coli; details: microdilution, LB, 18 to 24 h, 37°C, three independent experiments
# Protocol: as §1
# [19] = system: MDR E. coli ASEC 10; assay: microbe, parasite or virus in culture; assay type: cell-based, Escherichia coli; details: microdilution, LB, 18 to 24 h, 37°C, three independent experiments
# Protocol: as §1
# [20] = system: MDR E. coli ASEC 11; assay: microbe, parasite or virus in culture; assay type: cell-based, Escherichia coli; details: microdilution, LB, 18 to 24 h, 37°C, three independent experiments
# Protocol: as §1
# [21] = system: MDR E. coli ASEC 16; assay: microbe, parasite or virus in culture; assay type: cell-based, Escherichia coli; details: microdilution, LB, 18 to 24 h, 37°C, three independent experiments
# Protocol: as §1
# [22] = system: MDR E. coli ASEC 1; assay: microbe, parasite or virus in culture; assay type: cell-based, Escherichia coli; details: microdilution, LB, 18 to 24 h, 37°C, three independent experiments
# Protocol: as §1
# [23] = system: MDR E. coli ASEC 17; assay: microbe, parasite or virus in culture; assay type: cell-based, Escherichia coli; details: microdilution, LB, 18 to 24 h, 37°C, three independent experiments
# Protocol: as §1
# [24] = system: MDR E. coli ASEC 3; assay: microbe, parasite or virus in culture; assay type: cell-based, Escherichia coli; details: microdilution, LB, 18 to 24 h, 37°C, three independent experiments
# Protocol: as §1
# [25] = system: MDR E. coli ASEC 5; assay: microbe, parasite or virus in culture; assay type: cell-based, Escherichia coli; details: microdilution, LB, 18 to 24 h, 37°C, three independent experiments
# Protocol: as §1
# [26] = system: MDR E. coli ASEC 6; assay: microbe, parasite or virus in culture; assay type: cell-based, Escherichia coli; details: microdilution, LB, 18 to 24 h, 37°C, three independent experiments
# Protocol: as §1
# [27] = system: MDR E. coli ASEC 2; assay: microbe, parasite or virus in culture; assay type: cell-based, Escherichia coli; details: microdilution, LB, 18 to 24 h, 37°C, three independent experiments
# Protocol: as §1
# [28] = Escherichia coli, read-out: MIC
molecule,measurement,setting,value
C[C@@H](O)[C@H]1C(=O)N2C(C(=O)O)=C(S[C@@H]3CN[C@H](C(=O)N(C)C)C3)[C@H](C)[C@H]12 [Meropenem],MIC,"[1]; ASEC 10 (ESBL), resistance information of clinical isolate",<= 1 μg mL-1
same,susceptibility category,[1]; ASEC 10,S
same,MIC,"[2]; ASEC 17 (AmpC), resistance information of clinical isolate",<= 1 μg mL-1
same,susceptibility category,[2]; ASEC 17,S
same,MIC,"[3]; ASEC 2 (NDM-7), resistance information of clinical isolate",> 8 µg/mL
same,susceptibility category,[3]; ASEC 2,R
same,MIC,"[4]; ASEC 7 (ESBL), resistance information of clinical isolate",<= 1 μg mL-1
same,susceptibility category,[4]; ASEC 7,S
same,MIC,"[5]; ASEC 13 (AmpC), resistance information of clinical isolate",> 8 µg/mL
same,susceptibility category,[5]; ASEC 13,R
same,MIC,"[6]; ASEC 12 (AmpC), resistance information of clinical isolate",> 8 µg/mL
same,susceptibility category,[6]; ASEC 12,R
same,MIC,"[7]; ASEC 5 (ESBL), resistance information of clinical isolate",<= 4 μg mL-1
same,susceptibility category,[7]; ASEC 5,S
same,MIC,[8]; [28],< 1 µM
same,MIC,[9]; [28],16 µM
same,MIC,[10]; [28],< 1 µM
same,MIC,[11]; [28],8 µM
same,MIC,[12]; [28],8 µM
same,MIC,[13]; [28],> 32 µM
same,MIC,[14]; [28],< 1 µM
same,MIC,"[15]; Escherichia coli, ATCC25922, microdilution, read-out: MIC",< 1 µM
same,MIC,[16]; [28],2 µM
same,MIC,[17]; [28],< 1 µM
same,MIC,[18]; [28],< 1 µM
same,MIC,[19]; [28],< 1 µM
same,MIC,[20]; [28],< 1 µM
same,MIC,[21]; [28],< 1 µM
same,MIC,[22]; [28],1 µM
same,MIC,[23]; [28],< 1 µM
same,MIC,[24]; [28],> 32 µM
same,MIC,[25]; [28],8 µM
same,MIC,[26]; [28],16 µM
same,MIC,[27]; [28],> 32 µM
FKFLARTGKFL-NH2 [PN5],MIC,[8],4 (5.30) μM
same,MIC,[9],2 (2.65) μM
same,MIC,[10],16 (21.22) μM
same,MIC,[11],2 (2.65) μM
same,MIC,[12],8 (10.61) μM
same,MIC,[13],4 (5.30) μM
same,MIC,[14],16 (21.22) μM
same,MIC,[15]; microdilution,16 (21.22) μM
same,MIC,[16],8 (10.61) μM
same,MIC,[17],8 (10.61) μM
same,MIC,[18],16 (21.22) μM
same,MIC,[19],8 (10.61) μM
same,MIC,[20],2 (2.65) μM
same,MIC,[21],4 (5.30) μM
same,MIC,[22],8 (10.61) μM
same,MIC,[23],8 (10.61) μM
same,MIC,[24],8 (10.61) μM
same,MIC,[25],8 (10.61) μM
same,MIC,[26],4 (5.30) μM
same,MIC,[27],2 (2.65) μM
